Reference: patent US20240190823A1, “NRF2 INHIBITORS AND USES THEREOF” (Board of Trustees of Michigan State University, priority 2021, published 2024)

Tests used:
[1] = tested on: NF-κB pathway proteins (IκBa, NF-κB, p-NF-κB), cyclinG1 and STAT3; test: Western blotting of other cellular proteins (selectivity); assay type: cell-based
Experimental: Protein concentrations were measured using the BCA assay (Sigma-Aldrich). 20 μg of protein were separated by 10% SDS-PAGE gels and transferred to nitrocellulose membranes. Nrf2 (Novus Biologicals, 1:1000), NQO1 (Abcam, 1:1000), HO-1 (Abcam, 1:1000), Keap1 (Cell Signaling Technology, 1:1000), NF-κB (Cell Signaling Technology, 1:1000), IκBα (Cell Signaling Technology, 1:1000) Cyclin G1 (Santa Cruz, 35 1:1000), β-TrCP (Cell Signaling Technology, 1:1000), STAT3 (Cell Signaling Technology, 1:1000), Ubiquitin (Cell Signaling Technology, 1:1000), Histone 3 (Cell Signaling Technology, 1:4000), GAPDH (Santa Cruz, 1:4000) and Vinculin (Cell Signaling Technology, 1:4000) primary antibodies were applied to detect the corresponding proteins. Secondary antibodies (anti-rabbit or anti-mouse linked to HRP, 1:1000) were purchased from Cell Signaling Technology. ECL Western blotting substrate (GE Healthcare Life Sciences, UK) was used to detect the signal. […] Protein quantification was done using ImageJ.

[2] = tested on: A549, H460, A427 and MCF-7 cells; test: Cell growth assay, MTT, 2D culture, cancer cells; assay type: cell-based, human; conditions: 72 hours
Experimental: (§1) To evaluate cell proliferation in 2D culture, a MTT assay was performed. Cells were seeded in 96-well plates with 2000 cells/well in their corresponding growth media. […] To assess cell growth in 3D culture, A549, H460 and A427 cells were plated in 0.6% soft agar for 7 days. A Cytation 3 imaging reader from BioTek with Gen5 3.04 software was used to quantify colonies. Seven pictures were taken every 100 μm and superimposed together by z-projection function. Colonies>50 μm in diameter were quantified for each cell line.
(§2) Besides its anti-oxidative properties, Nrf2 also contributes to tumor cell growth. Nrf2 not only regulates cell proliferation as a downstream mediator of several onco-proteins but also reprograms cellular metabolism to favor anabolic pathways.

MCF-10A cells = test: Cell growth assay, MTT, MCF-10A cells; assay type: cell-based; conditions: concentrations<20 μM (data not shown)
Experimental: as §1, §2

[3] = tested on: A549, H460 and A427 cells; test: Cell growth in 3D culture (0.6% soft agar); assay type: cell-based, human; conditions: 7 days, dose-dependent
Experimental: as §1, §2

A549 cells [4] = test: In vivo treatment study, subcutaneous A549 xenograft; conditions: for tumor growth (tumor volume): i.p. daily (M-F), compound 1 50 mg/kg BID, carboplatin 5 mg/kg
Experimental: Male athymic nude mice (Harlan Laboratories, 6 week-old) were injected in the flank with 5×10^6 A549 cells. Cell line authenticity and absence of pathogens in the A549 cells were confirmed before establishing the model (I DEXX BioAnalytics). […] All mice were weighed twice a week, and tumors were measured twice a week using a caliper. All mice were sacrificed after 4 weeks of treatment and harvested for analysis of Nrf2 expression and cell proliferation.
Tumors were harvested and fixed in 10% neutral buffered formalin. Sectioned were obtained for immunohistochemistry staining. Sodium citrate buffer (10 mM, Vector) was used for antigen retrieval. 3% hydrogen peroxide (15-minute incubation) was used to quench the endogenous peroxidase activity. Sections were stained with PCNA (1:200, Santa Cruz) or Nrf2 (1:200, Novus Biologicals) antibodies for 1 hour at room temperature or overnight at 4° C., respectively. Anti-mouse and anti-rabbit secondary antibodies conjugated to HRP were purchased from Cell Signaling Technology. Signal was detected using a DAB kit (Cell Signaling Technology) and sections were counterstained with hematoxylin (Vector).

A549 cells [5] = test: Reactive oxygen species (ROS) assay; conditions: 24 hours, then tBHP for 15 minutes
Experimental: DCFDA (10 μM) was added for 2 hrs as an ROS indicator and then cells were treated with tert-butyl hydroperoxide (tBHP, 250 μM) for 15 minutes before harvesting. Then cells were washed with PBS and trypsinized to a single cell suspension. The cell pellet was resuspended in PBS and analyzed using a flow cytometer (Accuri, BD) with the FLA-1 channel. 50,000 events were acquired for each sample. Mean fluorescence intensity (MFI) was calculated using FlowJo software.

A549 cells [6] = test: Chemoresistance assay (Celltiter-glo); conditions: 72 hours
Text: Data was normalized to the DMSO control and presented as a percentage of cell viability. Data represent three independent experiments.

Nrf2 pathway = test: RT-qPCR of targets downstream of Nrf2 in A549 cells; conditions: 24 hours of treatment
Experimental: Total RNA was isolated using a RNeasy Mini Kit (QIAGEN). RNA concentrations were determined using NanoDrop. For each sample, 500 ng RNA was used to synthesize cDNA with high capacity cDNA reverse transcription kits (AppliedBiosystems). Primers were ordered from IDT. AppliedBiosystems Fast SYBR Green Master Mix and the QuantStudio 7 Flex Real-Time PCR system were used to detect gene expression. The delta-delta Ct method was applied to calculate relative gene expression. Values were normalized to the reference gene GAPDH and expressed as fold change compared to DMSO treated samples.

Nrf2 = molecular target: T1, Nrf2 (Homo sapiens, UniProt Q16236); conditions: cited from earlier work
T1 sequence (Q16236 1-605): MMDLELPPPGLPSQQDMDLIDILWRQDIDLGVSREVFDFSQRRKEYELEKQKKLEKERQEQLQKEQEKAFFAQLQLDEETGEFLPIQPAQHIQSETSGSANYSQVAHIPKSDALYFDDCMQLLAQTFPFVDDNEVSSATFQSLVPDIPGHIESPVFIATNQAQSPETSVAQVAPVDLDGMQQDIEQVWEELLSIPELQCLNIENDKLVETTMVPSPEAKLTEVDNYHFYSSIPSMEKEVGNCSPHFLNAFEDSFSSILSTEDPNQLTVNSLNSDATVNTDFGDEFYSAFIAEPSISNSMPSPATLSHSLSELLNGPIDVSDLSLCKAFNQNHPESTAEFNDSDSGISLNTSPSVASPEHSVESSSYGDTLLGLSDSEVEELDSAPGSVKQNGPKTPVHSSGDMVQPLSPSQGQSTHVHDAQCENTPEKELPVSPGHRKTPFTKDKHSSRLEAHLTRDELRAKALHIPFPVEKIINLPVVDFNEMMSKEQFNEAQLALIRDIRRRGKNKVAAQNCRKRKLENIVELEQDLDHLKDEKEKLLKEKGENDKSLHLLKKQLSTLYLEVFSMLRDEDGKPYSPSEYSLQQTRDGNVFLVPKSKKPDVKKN

Cc1cc(C)cc(Nc2nc(C)c(-c3ccccc3)cc2C#N)c1 [Compound 1, 2-((3,5-dimethylphenyl)amino)-6-methyl-5-phenylnicotinonitrile]
levels of NF-κB pathway proteins and other fast turnover proteins (cyclinG1, STAT3) [1]: did not change levels | overall expression pattern of abundant cellular proteins ([1]; data not shown): did not alter the overall expression pattern of abundant cellular proteins | sensitivity of Keap1 mutant (A549, H460) vs Keap1 wildtype (A427, MCF-7) cells ([2]; MTT): higher sensitivity | cell proliferation (MTT) ([2]; Keap1 mutant and Keap1 wild-type cancer cells): inhibited proliferation in various cancer cells | cell viability of non-tumorigenic epithelial cells (MCF-10A cells): did not have any effects on cell viability | growth in soft agar [3]: significantly (p<0.05) suppressed the growth | expression of Nrf2 protein in the tumors (A549 cells [4]; immunohistochemistry, vs vehicle control group): diminished the expression of Nrf2 protein in the tumors | tolerability / body weight (A549 cells [4]; nude mice, 50 mg/kg BID i.p., four weeks): generally well tolerated in the mice without inducing any changes on body weight over time | tumor growth (tumor volume) (A549 cells [4]; nude mice, four weeks): appeared to slow tumor growth, but the change was not statistically significant | ROS production (A549 cells [5]): dose-dependently increased ROS production | effect in combination with chemotherapy drugs (carboplatin, doxorubicin, 5-fluorouracil, topotecan) on cell viability (A549 cells [6]): Additive effects | mRNA expression of NFE2L2 (Nrf2 pathway): did not affect the mRNA expression of NFE2L2 | mRNA expression of targets downstream of Nrf2 (NQO1, GCLC, GCLM, GST1A1, UGT1A6) (Nrf2 pathway): significantly (p<0.05) decreased the expression of all these downstream genes

CCC(=O)O[C@]1(C(=O)CCl)[C@@H](C)C[C@H]2[C@@H]3CCC4=CC(=O)C=C[C@]4(C)[C@@]3(F)[C@@H](O)C[C@@]21C [clobetasol propionate]
mechanism of Nrf2 degradation (Nrf2): promotes βTrCP-dependent degradation of Nrf2

brusatol
time for Nrf2 protein levels to return to basal levels (Nrf2): ≤ 8 h | time of maximum reduction of Nrf2 (Nrf2): 2 to 4 h

N.N.O=C([O-])C1(C(=O)[O-])CCC1.[Pt+2] [Carboplatin, carboplatin, reference compound]
tumor growth (tumor volume) (A549 cells [4]; nude mice, four weeks): failed to arrest tumor growth
